Laboratory results reported in patent US20030161867A1, “Skin-permeable selective cyclooxygenase-2 inhibitor composition” (priority 2001, published 2003).
Values joined by “and” are separate entries in the source; they are usually repeats but may differ in a detail not shown here. Equal entries are not always repeated.

Experiments:
[1] = Skin permeation (skin flux) in Franz diffusion cell; type: in vitro ADME, human; conditions: for Normalized skin flux: normalized to a standard run on each skin lot
Experimental: Suitable receptor fluids can be selected by one of skill in the art, but presently preferred receptor fluids are a 1% polysorbate 80 solution and a 6% polyethylene glycol (20) oleyl ether (oleth-20) solution. The receptor fluid is maintained at a suitable temperature, preferably a temperature approximating living human skin temperature. A receptor fluid temperature of 32° C. has been found suitable. The membrane is oriented so that its internal surface, i.e., the surface opposite the epidermal surface, is placed in contact with the receptor fluid. Air bubbles are removed from the receptor fluid, which is then allowed to equilibrate for 30 minutes with the membrane. A test sample of a composition is placed in contact with the epidermal surface of the membrane, and left in place for a desired period, for example 24 hours. […] The receptor compartment of the Franz diffusion cell was filled with the receptor fluid and the diffusion cell was maintained at 32° C. The membrane was mounted on the receptor compartment, covered and fastened with a clamp. Air bubbles were removed from the receptor fluid, which was allowed to equilibrate for 30 minutes. A test composition was brought into contact with the membrane. […] Each test was conducted in several replicates.

[2] = Drug concentration of saturated solutions; type: physicochemical
Experimental: Saturated solutions of celecoxib were prepared in the following solvents: 70% aqueous ethanol (EtOH), ethanol, PEG-400 and propylene glycol (PG). The solutions were tested for skin permeation properties as described above, using 250 μl drops of each test solution.
Since different lots of skin were used to determine the skin flux of each compound, a standard was run on each skin lot and the data were normalized.
The solutions were tested for skin permeation properties as described above.

[3] = Skin permeation (skin flux) in Franz diffusion cell; type: in vitro ADME, human; conditions: saturated aqueous solution, 50° C.
COX-1 = COX-1 (Homo sapiens, UniProt P23219); conditions: in vitro; cited from earlier work
COX-2 = biological target: T1, COX-2 (Homo sapiens, UniProt P35354); conditions: in vitro; cited from earlier work
T1 sequence (P35354 18-604): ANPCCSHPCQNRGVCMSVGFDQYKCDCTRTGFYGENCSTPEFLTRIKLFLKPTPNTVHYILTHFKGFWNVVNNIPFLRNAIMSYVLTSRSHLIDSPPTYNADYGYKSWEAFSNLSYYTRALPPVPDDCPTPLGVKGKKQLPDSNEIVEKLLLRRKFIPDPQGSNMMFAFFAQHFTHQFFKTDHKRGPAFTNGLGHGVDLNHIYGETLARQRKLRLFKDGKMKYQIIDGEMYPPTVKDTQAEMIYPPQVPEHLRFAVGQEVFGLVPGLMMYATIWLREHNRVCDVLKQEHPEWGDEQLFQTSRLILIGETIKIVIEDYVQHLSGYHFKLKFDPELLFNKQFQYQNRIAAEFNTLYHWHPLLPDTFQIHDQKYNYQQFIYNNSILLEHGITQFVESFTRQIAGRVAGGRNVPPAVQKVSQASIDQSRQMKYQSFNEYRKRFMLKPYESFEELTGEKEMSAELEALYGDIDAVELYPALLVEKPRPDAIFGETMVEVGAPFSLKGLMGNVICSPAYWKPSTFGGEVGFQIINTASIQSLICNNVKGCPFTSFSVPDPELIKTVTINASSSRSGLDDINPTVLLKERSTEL

[4] = Distribution of drug in epidermis and dermis after Franz cell skin permeation test; type: in vitro ADME, human
Excerpt: As a way of measuring the skin permeation properties of selective COX-2 inhibitory drugs or prodrugs in dermally deliverable pharmaceutical compositions, a Franz diffusion cell was provided utilizing a human cadaver skin membrane and a 1% polysorbate 80 (Tween™ 80) solution as a receptor fluid. Frozen skin was thawed at room temperature and punched with a 20 mm puncher to provide a membrane. The receptor compartment of the Franz diffusion cell was filled with the receptor fluid and the diffusion cell was maintained at 32° C. The membrane was mounted on the receptor compartment, covered and fastened with a clamp. Air bubbles were removed from the receptor fluid, which was allowed to equilibrate for 30 minutes. A test composition was brought into contact with the membrane. The amount of drug which permeated through the membrane in a 24 hour period was determined by HPLC analysis of the receptor fluid. Each test was conducted in several replicates.
Distribution of drug in epidermis and dermis was also determined. Results are shown in Table 6, by comparison with the solution compositions of Examples 1 and 2.

[5] = 5% oleyl alcohol and 3% thymol in 70% aqueous ethanol, versus skin flux data in Table 2
[6] = saturated solution in 70% aqueous ethanol containing 5% oleyl alcohol and 3% thymol, 250 μl
[7] = saturated solution in 70% aqueous ethanol, 250 μl, occlusive, 24 hour period, 32° C.
[8] = saturated solution in 70% aqueous ethanol
[9] = Celecoxib + parecoxib Na composition: saturated celecoxib in 67% aqueous ethanol containing 5% parecoxib sodium
[10] = Valdecoxib + parecoxib Na composition: saturated valdecoxib in 67% aqueous ethanol containing 5% parecoxib sodium
[11] = saturated aqueous solution, 32° C.
[12] = gel, 1% drug (10 mg/ml) in 70% aqueous ethanol with 3% Klucel, 50 mg applied, non-occlusive
[13] = saturated solution in 70% aqueous ethanol, skin donor 3
[14] = saturated solution in 70% aqueous ethanol, skin donor 4
[15] = saturated solution in PEG-400, 250 μl, 24 hour period
[16] = saturated solution in ethanol (EtOH), 250 μl, 24 hour period
[17] = saturated solution in propylene glycol (PG), 250 μl, 24 hour period
[18] = with 5% parecoxib sodium in 67% aqueous ethanol, versus Table 2 data in absence of parecoxib sodium
[19] = gel, 1% drug in 70% aqueous ethanol with 3% Klucel, 50 mg, non-occlusive
[20] = saturated solution in 70% aqueous ethanol, 250 μl, occlusive

Sequence of COX-1 (P23219 24-599): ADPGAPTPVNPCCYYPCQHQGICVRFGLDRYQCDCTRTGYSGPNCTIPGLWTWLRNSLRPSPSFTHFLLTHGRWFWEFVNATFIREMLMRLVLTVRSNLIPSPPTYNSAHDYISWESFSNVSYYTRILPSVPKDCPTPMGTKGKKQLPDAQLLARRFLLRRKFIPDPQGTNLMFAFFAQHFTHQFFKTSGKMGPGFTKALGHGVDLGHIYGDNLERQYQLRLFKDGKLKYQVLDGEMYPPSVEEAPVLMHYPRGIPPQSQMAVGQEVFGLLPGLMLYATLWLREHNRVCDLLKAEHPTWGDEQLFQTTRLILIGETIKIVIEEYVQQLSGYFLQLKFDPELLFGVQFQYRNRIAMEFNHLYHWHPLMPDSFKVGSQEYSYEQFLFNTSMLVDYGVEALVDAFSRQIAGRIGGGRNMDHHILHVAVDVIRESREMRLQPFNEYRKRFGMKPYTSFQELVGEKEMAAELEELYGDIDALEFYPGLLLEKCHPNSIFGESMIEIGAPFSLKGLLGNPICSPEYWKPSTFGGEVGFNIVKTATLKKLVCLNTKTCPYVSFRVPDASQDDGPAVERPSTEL

Enhancement factor [1, 5] | Skin flux [1, 6] | Normalized skin flux [1, 8] [μg/cm^2 · day] | Concentration [2, 8] [µg/mL] | Skin flux [1, 9] [μg/cm^2 · day] | Skin flux [1, 11] [μg/cm^2 · day] | Concentration ([2]; saturated aqueous solution) [µg/mL] | Skin flux [3] [μg/cm^2 · day] | SMILES | Skin flux [1, 7] | Skin flux [1, 10] [μg/cm^2 · day] | inhibitory activity against COX-1 (COX-1) | Skin flux [1, 12] [μg/cm^2 · day] | Skin flux [1, 13] [μg/cm^2 · day] | Skin flux [1, 14] [μg/cm^2 · day] | Skin flux [1, 15] | Skin flux [1, 16] [μg/cm^2 · day] | Skin flux [1, 17] | Enhancement factor [1, 18] | Drug in dermis [4, 19] | Drug in epidermis [4, 19] [µg] | also measured
4.8 | 1210 ± 58.0^ μg/cm^2 · day | 120.0 | 386000 | – | – | – | – | CCC(=O)NS(=O)(=O)c1ccc(-c2c(-c3ccccc3)noc2C)cc1 [parecoxib Na] | 254 ± 164 μg/cm^2 · day | – | – | – | – | – | – | – | – | – | – | – | –
– | – | – | – | 74.7 ± 14.7 | 8.62 ± 1.94 | 50.8 | 47.16 ± 3.70 | CCC(=O)NS(=O)(=O)c1ccc(-c2c(-c3ccccc3)noc2C)cc1 [parecoxib, N-[[4-(5-methyl-3-phenylisoxazol-4-yl)phenyl]sulfonyl]propanamide] | – | 64.1 ± 11.3 | weak in vitro inhibitory activity | – | – | – | – | – | – | – | – | – | inhibitory activity against COX-2 (COX-2): weak in vitro inhibitory activity
1.4 | 21.7 ± 4.6 μg/cm^2 · day | 34.9 | 15200 | 183 ± 153 | 4.27 ± 0.84 | 0.5 | 23.71 ± 4.42 | Cc1ccc(-c2cc(C(F)(F)F)nn2-c2ccc(S(N)(=O)=O)cc2)cc1 [celecoxib, 4-[5-(4-methylphenyl)-3-(trifluoromethyl)-1H-pyrazol-1-yl]benzenesulfonamide] | 15.7 μg/cm^2 · day and 15.7 ± 3.83 μg/cm^2 · day | – | – | 3.82 ± 3.36 | 73.7 ± 11.8 | 31.9 ± 9.6 | No skin permeation | 5.62 ± 1.49 | No skin permeation | 11.5 | 1.22 ± 0.51 µg | 2.36 ± 1.06 | Celecoxib permeation ([1]; saturated celecoxib solution in 70% ethanol, amount in receptor fluid after 15 hours): 1.406 ± 0.086 μg/cm^2; Skin flux ([1]; saturated solution in 70% aqueous ethanol, 250 μl, occlusive, 24 hour period, 32° C., listed as Celecoxib): 15.7 ± 3.83 μg/cm^2 · day; Skin flux ([1]; saturated solution in 70% aqueous ethanol, skin donor 1): 15.7 ± 3.8 μg/cm^2 · day; Skin flux ([1]; saturated solution in 70% aqueous ethanol, skin donor 6): 50.4 ± 12.7 μg/cm^2 · day; Skin flux ([1]; saturated solution in PEG-400, 250 μl, 24 hour period, listed as Celecoxib): ud; Skin flux ([1]; saturated solution in propylene glycol (PG), 250 μl, 24 hour period, listed as Celecoxib): ud; Drug in dermis [4, 20]: 2.50 ± 1.53 µg; Drug in epidermis [4, 20]: 3.92 ± 0.79 µg; Concentration ([2]; saturated in 67% aqueous ethanol containing 5% parecoxib sodium): 15900 µg/mL; Concentration ([2]; saturated solution in PEG-400): 297000 µg/mL; Concentration ([2]; saturated solution in ethanol (EtOH)): 91400 µg/mL; Concentration ([2]; saturated solution in propylene glycol (PG)): 33300 µg/mL

SMILES | Enhancement factor [1, 5] | Skin flux [1, 6] | Normalized skin flux [1, 8] [μg/cm^2 · day] | Concentration [2, 8] [µg/mL] | Skin flux [1, 9] [μg/cm^2 · day] | Skin flux [1, 11] [μg/cm^2 · day] | Concentration ([2]; saturated aqueous solution) [µg/mL] | Skin flux [3] [μg/cm^2 · day] | Skin flux [1, 7] | Skin flux [1, 10] [μg/cm^2 · day] | inhibitory activity against COX-1 (COX-1) | Skin flux [1, 12] [μg/cm^2 · day] | Skin flux [1, 13] [μg/cm^2 · day] | Skin flux [1, 14] [μg/cm^2 · day] | Skin flux [1, 15] | Skin flux [1, 16] [μg/cm^2 · day] | Skin flux [1, 17] | Enhancement factor [1, 18] | Drug in dermis [4, 19] | Drug in epidermis [4, 19] [µg] | also measured
Cc1onc(-c2ccccc2)c1-c1ccc(S(N)(=O)=O)cc1 [valdecoxib, 4-[5-methyl-3-phenylisoxazol-4-yl]benzenesulfonamide] | 25 | 323 ± 21 μg/cm^2 · day | 53.4 | – | – | 7.94 ± 0.89 | – | 42.12 ± 7.82 | 12.8 μg/cm^2 · day and 12.8 ± 4.96 μg/cm^2 · day | 108 ± 16.7 | weak inhibitor | 11.3 ± 6.48 | 91.9 ± 15.0 | 58.3 ± 11.0 | No skin permeation | 1.44 ± 0.54 | No skin permeation | 8.4 | ud | 1.81 ± 1.87 | Skin flux ([1]; saturated solution in 70% aqueous ethanol, 250 μl, occlusive, 24 hour period, 32° C., listed as Valdecoxib): 12.8 ± 4.96 μg/cm^2 · day; Skin flux ([1]; saturated solution in 70% aqueous ethanol, skin donor 2): 12.8 ± 5.0 μg/cm^2 · day; Skin flux ([1]; saturated solution in PEG-400, 250 μl, 24 hour period, listed as Valdecoxib): ud; Skin flux ([1]; saturated solution in propylene glycol (PG), 250 μl, 24 hour period, listed as Valdecoxib): ud; Drug in dermis [4, 20]: 0.543 ± 0.525 µg; Drug in epidermis [4, 20]: 9.27 ± 3.84 µg
